In US10980808B2, “Calmodulin inhibitors, Chk2 inhibitors and RSK inhibitors for the treatment of ribosomal disorders and ribosomapathies” (THE CHILDREN'S MEDICAL CENTER CORPORATION, priority 2016, dated 2021):
Where a name gives a salt, the structure may show the parent alone.

Key:
[1] = system: p70S6K and RPS6 phosphorylation in cells; assay: phosphorylation after calcium chelation in cells; type: cell-based; conditions: chelating calcium in cells
From the text: (§1) We hypothesize that the CaM inhibition is indirect, CaM is needed for calcium signaling. […] RSK inhibitor: SL and B1. P70s6K inhibitor: PF. In Summary we show: 1) CaM and Chk2 inhibitors reduce S392 phosphorylation of p53—to a much greater extent during ribosomal protein deficiency 2) CaM and Chk2 inhibitors also decrease P-p70S6K to a much greater extent during RP deficiency 3) p70S6K can directly phosphorylate p53 S392 in vitro 4) Total protein levels of RSK, p70S6K and rps6 are increased ruing RP deficiency in vitro and in vivo 5) RSK2 is increased in our microarray in […] vs WT 24 hpf embryos. Protein validates this upregulation 6) Calcium levels are increased during RP deficiency 7) Blocking the CaM-Calcium signaling (CaM inhibitors) or directly inhibiting RSK or p70S6K (Chk2 inhibitors) leads to a decrease in P-p53 and p53 activity. Reduced p53 activity leads to fewer RBCs undergoing apoptosis, alleviating the anemia.

[2] = system: calcium in lysates of RPS19 knocked down cells; assay: colorimetric calcium detection in cellular lysates; type: cell-based
From the text: as §1

[3] = system: rps29−/− zebrafish embryos; conditions: previously demonstrated; cited from earlier work
[4] = system: rps29−/− zebrafish embryos; assay: hemoglobin (benzidine staining) rescue in rps29-/- zebrafish embryos; type: in vivo; conditions: benzidine staining; dihydrochloride
mouse thymocytes = conditions: cited from earlier work
p70S6K = p70S6K (Homo sapiens, UniProt P23443); assay: in vitro kinase profiling (Thermo Fisher SelectScreen), p70S6K; type: biochemical
Chain of p70S6K (P23443 whole entry): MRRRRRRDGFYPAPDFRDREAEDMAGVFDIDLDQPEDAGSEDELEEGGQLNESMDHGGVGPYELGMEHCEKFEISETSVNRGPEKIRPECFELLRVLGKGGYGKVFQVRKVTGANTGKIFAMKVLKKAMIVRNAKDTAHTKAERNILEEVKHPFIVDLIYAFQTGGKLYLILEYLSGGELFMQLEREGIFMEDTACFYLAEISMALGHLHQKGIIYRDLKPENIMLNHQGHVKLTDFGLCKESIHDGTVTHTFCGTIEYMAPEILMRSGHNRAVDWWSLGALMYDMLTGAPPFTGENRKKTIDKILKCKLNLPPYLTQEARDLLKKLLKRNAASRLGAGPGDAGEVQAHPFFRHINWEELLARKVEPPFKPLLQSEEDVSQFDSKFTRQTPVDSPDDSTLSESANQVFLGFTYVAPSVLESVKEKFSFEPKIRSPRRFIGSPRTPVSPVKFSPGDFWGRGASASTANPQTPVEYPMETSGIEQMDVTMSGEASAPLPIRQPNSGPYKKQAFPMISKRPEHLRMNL
From the text: We asked if CaM and Chk2 inhibitors are blocking specific kinases. The known kinases that phosphorylate S392 are CK2 and p38. […] Thus, the question became what is TFP inhibiting upstream? Is it inhibiting a kinase that phosphorylates S392? We submitted CaM and Chk2 inhibitors for Kinase profiling using Thermo Fisher's SelectScreen.

[5] = system: Chk2 activation in HT29 cells; conditions: cited from earlier work

SMILES: CC(=O)OCOC(=O)CN(CC(=O)OCOC(C)=O)c1ccccc1OCCOc1ccccc1N(CC(=O)OCOC(C)=O)CC(=O)OCOC(C)=O [BAPTA-AM]
- RPS6 phosphorylation [1]: reduces
- p70S6K phosphorylation [1]: reduces
- calcium levels in cellular lysates [2]: reduce the calcium levels

SMILES: NCCCCCCNS(=O)(=O)c1cccc2ccccc12 [W-5]
- rescue of the vasculature defect [3]: rescue the vasculature defect

SMILES: COc1cc2nc(-c3cc(F)ccc3O)nc(NC3CNC[C@H]3C(C)(C)O)c2cc1OC (some centres unmarked) [CCT, CCT 241533 dihydrochloride]
- hemoglobin (Hb) in rps29−/− embryos [4]: rescue Hb
- ionizing radiation-induced apoptosis (mouse thymocytes): blocks
- percent inhibition of in vitro kinase activity, p70S6K (p70S6K): inhibition
- Chk2 activation in response to etoposide-induced DNA damage [5]: inhibits
